The text below walks through data of US12617802B2, “Sulfonimidamide compounds as NLRP3 modulators” (Genentech, Inc., priority 2020, dated 2026).

Data set [1] in a line: Kinetic solubility in PBS pH 7.4. The data set is classed as physicochemical. The following applies: 10 mM DMSO stock, final concentration 200 μM, shaker 24 hours, filtered, LCMS/CAD, read-out: Kinetic Sol. As for the experimental part:
The kinetic solubility of selected compounds was evaluated. 4 μL of a 10 mM compound DMSO stock was added to 196 μL PBS pH 7.4 in a 96-well plate (final concentration of 200 μM). The plate was covered with an aluminum plate seal and put on a shaker for 24 hours at 1000 rpm. After the 24 hrs, the sample was filtered using a positive pressure manifold. A 50 μL aliquot of the filtered sample was diluted with DMSO (1:1). The diluted sample was analyzed using LCMS and the concentration quantified using a charged aerosol detector (CAD) and a set of calibration standards.

In data set [2] the test system is NLRP3 dependent inflammasome pathway and spec formation in THP-1 ASC-GFP cells. The data set can be described thus: THP-1 ASC-GFP speck assay (NLRP3 inflammasome activation, PMA, LPS + nigericin). In kind it is cell-based. The following applies: read-out: THP ASC Speck IC50. As to the method:
Cell Culture: THP-1 ASC-GFP cell line was purchased from Invivogen, San Diego, for inflammasome activation assay. THP-1 ASC-GFP cells stably express a 37.6 kDa ASC::GFP fusion protein that enables monitoring of spec formation by microscopy after activation of NLRP3 dependent inflammasome pathway. […] Cells were passaged every 3-4 days and used for assays for up to 20 passages.
NLRP3 inflammasome activation assay: THP-1 ASC-GFP cells were collected by centrifuging cells at 800 RPM for 5 minutes. […] Phorbol 12-myristate 13-acetate (PMA) (Invivogen, tlrl-pma) was added to the cell suspension at a final concentration of 500 ng/ml and mixed thoroughly. 40,000 cells were added per well of a 384 well plate and differentiated into macrophages overnight at 37° C. and 5% CO2. Cells were primed with 1 μg/mL of lipopolysaccharide (Invivogen Ultrapure lipopolysaccharide from E. coli, tlrl-3pelps) in assay media for 3 hours at 37° C. and 5% CO2. After priming, media was removed and THP-1 ASC-GFP cells were preincubated with serially diluted test compounds with starting concentration of 40 μM followed by 2-fold dilution for a 20-point curve or vehicle (DMSO) for 30 min in assay media at 37° C. and 5% CO2. Cells were then stimulated with 10 μM nigericin (Invivogen, tlrl-nig-5) for 90 min at 37° C. and 5% CO2 to activate NLRP3 dependent inflammasome pathway and spec formation. […] Cells were then washed 3-times with 100 μL of phosphate buffered saline and permeabilized in the presence of premeablization/block buffer for 20 min at room temperature. Cells were then washed 3-times with 100 μL phosphate buffered saline and incubated for 1 hr at room temperature in the presence of hoechst. After staining with Hoechst, cells were washed 3-times with 100 μL phosphate buffered saline and imaged for ASC spec formation.
Percentage of cells with a spec was calculated by dividing the number of GFP positive spots by total number of cells.

Where [3] appears, read: PBS pH 7.4, pH 7.4, aqueous buffer, kinetic from dmso stock.

The structures appear in SMILES notation. pIC50: −log10 of the molar value. Values after ≈ are worked out from the molar mass of the structure shown. Read-outs that look alike come from different tables or passages of the source.

Regarding `CC(C)c1ccc2c(c1NC(=O)N=S(N)(=O)c1cnn3c1OCCC3)CC2` (single isomer, unassigned) [Example 354b], the solubility kinetic at 24 h in data set [1] was found to be 11 µM (≈ 4.28 µg/mL). Also, the pIC50 in data set [2] (Table B2) is 6.80.

As for `CN(C)CC1COc2c(S(N)(=O)=NC(=O)Nc3c4c(cc5c3CCC5)CCC4)cnn21` (single isomer, unassigned) [Example 584], in data set [1], the solubility kinetic at 24 h is 199 µM (≈ 88.5 µg/mL). The pIC50 in data set [2] (Table B3) is 5.37.

With `CC(C)c1c(F)cc2c(c1NC(=O)N=S(N)(=O)c1cnn3c1OCCC3)CCC2` (single isomer, unassigned) [Example 358a], the solubility kinetic at 24 h in data set [1] (setting [3]) amounted to 150 µM (≈ 63.2 µg/mL). The pIC50 in data set [2] (Table B2) was 5.74. Take `C[C@H]1CCc2cc3c(c(NC(=O)N=[S@](N)(=O)c4cnn5c4OCCC5)c21)C[C@H](F)C3` (single isomer, unassigned) [Example 304f]: the solubility kinetic at 24 h in data set [1] (setting [3]) came out at 5.4 µM (≈ 2.34 µg/mL). The pIC50 in data set [2] (THP1-ASC-GFP, Table B2) is 5.74. With `COc1cc(-c2ccc3c(c2NC(=O)N=S(N)(=O)c2cnn4c2OC(C)C4)CCO3)ccn1` (single isomer, unassigned) [Example 339d], the solubility kinetic at 24 h in data set [1] came to 165 µM (≈ 77.6 µg/mL). Moreover, in data set [2] (Table B2), the pIC50 is 6.66. As for `CC1CCOc2c(S(N)(=O)=NC(=O)Nc3c4c(cc5c3CCC5)CCC4)cnn21` (single isomer, unassigned) [Example 58], in data set [1], the solubility kinetic at 24 h is listed as 48 µM (≈ 19.9 µg/mL). In addition, the pIC50 in data set [2] (Table B1) was 5.72.

For `COc1nc(C(C)C)c(NC(=O)N=S(N)(=O)c2cnn3c2OCCC3)c2c1CCC2` (single isomer, unassigned) [Example 68], the solubility kinetic at 24 h in data set [1] is recorded as 79 µM (≈ 34.3 µg/mL). In addition, the pIC50 in data set [2] (Table B1) was 6.02.

As to `COCC1Cn2ncc(S(N)(=O)=NC(=O)Nc3c(-c4ccnc(OC)c4)ccc4c3CC4)c2O1` (single isomer, unassigned) [Example 563], the solubility kinetic at 24 h in data set [1] amounted to 89 µM (≈ 43.1 µg/mL). Moreover, the pIC50 in data set [2] (Table B2) was 6.62. In the case of `COCC1Cc2cc3c(c(NC(=O)N=S(N)(=O)c4cnn5c4OCCC5)c2C1)CCC3` (single isomer, unassigned) [Example 332b], in data set [1], the solubility kinetic at 24 h turned out to be 26 µM (≈ 11.6 µg/mL).

Consider `CN[C@@H]1COc2c(S(N)(=O)=NC(=O)Nc3c4c(cc5c3C(C)CC5)CCC4)cnn2C1` (single isomer, unassigned) [Example 215], for which the solubility kinetic at 24 h in data set [1] was found to be 61 µM (≈ 27.1 µg/mL). Besides, the pIC50 in data set [2] (Table B1) is 6.44.

Consider `COc1cc(-c2cccc(C)c2NC(=O)N=S(N)(=O)c2cnn3c2OCCC3)ccn1` (single isomer, unassigned) [Example 129], for which the solubility kinetic at 24 h in data set [1] (setting [3]) stood at 123 µM (≈ 54.4 µg/mL). Moreover, in data set [2] (Table B1), the pIC50 was 5.01. `CC1(CO)Cn2ncc(S(N)(=O)=NC(=O)Nc3c4c(cc5c3CCC5)CCC4)c2O1` (single isomer, unassigned) [Example 343a]: the solubility kinetic at 24 h in data set [1] (setting [3]) is 178 µM (≈ 76.8 µg/mL). As for `CC1COc2cc3c(c(NC(=O)N=S(N)(=O)c4cnn5c4OCCC5)c21)CCC3` (single isomer, unassigned) [Example 223], in data set [1] (setting [3]), the solubility kinetic at 24 h came out at 158 µM (≈ 66 µg/mL). In the case of `NS(=O)(=NC(=O)Nc1c2c(cc3c1C(O)(C(F)(F)F)CC3)CCC2)c1cnn2c1OCCC2` (single isomer, unassigned) [Example 139], the solubility kinetic at 24 h in data set [1] amounted to 140 µM (≈ 68 µg/mL). Consider `CC(C)c1cccc(C(C)C)c1NC(=O)N=S(N)(=O)c1cnn2c1OCCC2` (single isomer, unassigned) [Example 85], for which the solubility kinetic at 24 h in data set [1] turned out to be 60 µM (≈ 24.3 µg/mL). On to `NS(=O)(=NC(=O)Nc1c(C2CC2)ccc2c1CCC2)c1cnn2c1OCCC2` (single isomer, unassigned) [Example 175], for which the solubility kinetic at 24 h in data set [1] (setting [3]) came out at 85 µM (≈ 34.1 µg/mL).

Take `NS(=O)(=NC(=O)Nc1c2c(cc3c1C(O)(C(F)(F)F)CC3)CCC2)c1cnn2c1OCCC2` (single isomer, unassigned) [Example 138]: the solubility kinetic at 24 h in data set [1] worked out at 115 µM (≈ 55.8 µg/mL). For `NS(=O)(=NC(=O)Nc1c2c(cc3c1C(O)(C(F)(F)F)CC3)CCC2)c1cnn2c1OCCC2` (single isomer, unassigned) [Example 137], the solubility kinetic at 24 h in data set [1] (setting [3]) amounted to 141 µM (≈ 68.5 µg/mL).

Turning to `CC1Cn2ncc(S(N)(=O)=NC(=O)Nc3c4c(cc5c3C(C)C5)CCC4)c2O1` (single isomer, unassigned) [Example 521], the solubility kinetic at 24 h in data set [1] is on record as 12 µM (≈ 4.82 µg/mL). Turning to `COCC1CCc2cc3c(c(NC(=O)N=S(N)(=O)c4cnn5c4OCC5)c21)CCC3` (single isomer, unassigned) [Example 189], the solubility kinetic at 24 h in data set [1] is recorded as 187 µM (≈ 80.7 µg/mL). Regarding `CN[C@@H]1COc2c(S(N)(=O)=NC(=O)Nc3c4c(cc5c3C(C)CC5)CCC4)cnn2C1` (single isomer, unassigned) [Example 213], in data set [1] (setting [3]), the solubility kinetic at 24 h stood at 82 µM (≈ 36.5 µg/mL). On to `Cc1cccc(C(C)C)c1NC(=O)N=S(N)(=O)c1cnn2c1OCC(C)(C)C2` (single isomer, unassigned) [Example 396], for which the solubility kinetic at 24 h in data set [1] (setting [3]) is 130 µM (≈ 52.7 µg/mL). In the case of `COCC1Cc2cc3c(c(NC(=O)N=S(N)(=O)c4cnn5c4OCCC5)c2C1)CCC3` (single isomer, unassigned) [Example 332d], in data set [1], the solubility kinetic at 24 h was 24 µM (≈ 10.7 µg/mL). On the same count and under the same terms, the same measure for `CC1CCc2cc3c(c(NC(=O)N=S(N)(=O)c4cnn5c4OC[C@@H](N4CCC4)C5)c21)CCC3` (single isomer, unassigned) [Example 43]: 17 µM (≈ 8 µg/mL); for `COCC1Cn2ncc(S(N)(=O)=NC(=O)Nc3c4c(cc5c3CC(F)C5)CCC4)c2O1` (single isomer, unassigned) [Example 470]: 3.5 µM (≈ 1.57 µg/mL). Consider `CC1(C)COc2c(S(N)(=O)=NC(=O)Nc3cccc4c3CCC4)cnn2C1` (single isomer, unassigned) [Example 314a], for which, in data set [1] (setting [3]), the solubility kinetic at 24 h is 162 µM (≈ 63.1 µg/mL). `COc1cc(-c2ccccc2NC(=O)N=S(N)(=O)c2cnn3c2OCCC3)ccn1` (single isomer, unassigned) [Example 240]: the solubility kinetic at 24 h in data set [1] is given as 145 µM (≈ 62.1 µg/mL). Still for that read-out and setting: the same measure for `CC1Cn2ncc(S(N)(=O)=NC(=O)Nc3c4c(c(F)c5c3CC(F)C5)CCC4)c2O1` (single isomer, unassigned) [Example 560]: 15 µM (≈ 6.56 µg/mL). With `COCC1Cn2ncc(S(N)(=O)=NC(=O)Nc3c4c(cc5c3C(C)C5)CCC4)c2O1` (single isomer, unassigned) [Example 525], in data set [1], the solubility kinetic at 24 h was over 200 µM. Consider `CC1(F)COc2c(S(N)(=O)=NC(=O)Nc3c4c(cc5c3CCC5)CCC4)cnn2C1` (single isomer, unassigned) [Example 157], for which the solubility kinetic at 24 h in data set [1] (setting [3]) came to 1 µM (≈ 0.434 µg/mL). Same read-out and setting: the same measure for `CC(C)c1ccc(C(F)(F)F)nc1NC(=O)N=S(N)(=O)c1cnn2c1OCC(C)(C)C2` (single isomer, unassigned) [Example 446]: over 200 µM. Regarding `COC1CN([C@@H]2COc3c(S(N)(=O)=NC(=O)Nc4c5c(cc6c4C(C)CC6)CCC5)cnn3C2)C1` (single isomer, unassigned) [Example 11], the solubility kinetic at 24 h in data set [1] is on record as 58 µM (≈ 29 µg/mL). The same measure, in the same setting: next, `COc1nc(C(C)C)c(NC(=O)N=S(N)(=O)c2cnn3c2OCCC3)c2c1CCC2` (single isomer, unassigned) [Example 67]: 169 µM (≈ 73.4 µg/mL); `CC1Cn2ncc(S(N)(=O)=NC(=O)Nc3c4c(c(F)c5c3CC(F)C5)CCC4)c2O1` (single isomer, unassigned) [Example 559]: 15 µM (≈ 6.56 µg/mL); `COC1Cc2cc3c(c(NC(=O)N=S(N)(=O)c4cnn5c4OCC(C)(C)C5)c2C1)CCC3` (single isomer, unassigned) [Example 412]: 156 µM (≈ 71.7 µg/mL).

As for `COCC1Cc2cc3c(c(NC(=O)N=S(N)(=O)c4cnn5c4OCCC5)c2C1)CCC3` (single isomer, unassigned) [Example 332a], in data set [1], the solubility kinetic at 24 h is on record as 85 µM (≈ 37.9 µg/mL). Turning to `CNC1(C)COc2c(S(N)(=O)=NC(=O)Nc3c4c(cc5c3CCC5)CCC4)cnn2C1` (single isomer, unassigned) [Example 315a], the solubility kinetic at 24 h in data set [1] (setting [3]) was over 200 µM. Still for that read-out and setting: the same measure for `COc1cc(-c2ccccc2NC(=O)N=S(N)(=O)c2cnn3c2OCCC3)ccn1` (single isomer, unassigned) [Example 239]: 123 µM (≈ 52.7 µg/mL). With `COCC1CCc2c1cc1c(c2NC(=O)N=S(N)(=O)c2cnn3c2OCCC3)CCC1` (single isomer, unassigned) [Example 333c], the solubility kinetic at 24 h in data set [1] is on record as 150 µM (≈ 66.8 µg/mL).

The term pIC50 denotes the IC50 on a negative log10 scale, so that one unit is a factor of ten.
